# Values quoted from earlier work in publication PMC5389743 (Investigative Ophthalmology & Visual Science, 2017).
# Tests used:
# [1] = system: α-chymotrypsin–induced rabbit glaucoma model; details: 0.4% Δ^8-THC submicron emulsion, ocular hypertensive rabbits
# [2] = system: normotensive rabbits; details: 0.4% Δ^8-THC submicron emulsion, after 2 hours
compound,measurement,setting,value
CCCCCc1cc(O)c2c(c1)OC(C)(C)[C@@H]1CC=C(C)C[C@@H]21 [Δ^8-THC],Drop of IOP,[1],6.5 mm of Hg
same,Difference between the IOP with and without treatment,[2],2 mm of Hg
